The record followed here is patent US20210267948A1, “TREATMENT OF CANCER” (CITY OF HOPE, priority 2017, published 2021).

Data set [1] is described as follows: Exposure in animal toxicology studies. Particulars: in vivo, read-out: AUC, maximum level observed. As to the method:
Maximum dose level is capped at 2400 mg/day (Dose Level 8) corresponding to closest highest level achieved in animal studies. […] Intrapatient dose escalation is permissible if a dose level has been cleared.

Data set [2] deals with HCC1937+BRCA1. The data set can be described thus: Cytotoxicity assay, HCC1937+BRCA1. Format: cell-based, human. The following applies: 10 μM, 72 h. As to the method:
All cell lines were acquired from the American Type Culture Collection (Manassas, Va., USA). Cells were maintained in RPMI 1640 medium (Mediatech) with 10% fetal bovine serum, 2 mM glutamine, and 100 U of penicillin and 100 μg of streptomycin per ml of medium (Sigma) at 37° C. in 5% CO2. To isolate HCC1937+BRCA1 cells, parental HCC1937 cells were transfected with pcDNA3.1 plasmid expressing full-length BRCA1 cDNA. Stable transfectant clones were selected and used for drug sensitivity assays. For stable transfection, cells at 30-40% confluence were incubated overnight with […] of plasmid DNA, using FUGENE® 6 transfectin reagent (Roche Molecular Biochemical, Monza, Italy) according to the manufacturer's instructions. Cells were then selected in puromycin (1 μg/ml) (Invitrogen Life Technologies, La Jolla, Calif., USA). After 20 to 30 days, viable puromycin-resistant colonies from HCC1937 transfections were expanded and screened. The clones that stably expressed puromycin and retained growth potential were assayed for BRCA1 expression by Western blot analysis. The restoration of BRCA1 expression in the puromycin-resistant cDNA/transfectant cells was evaluated by Western blot analysis.
The MTT cytotoxicity assay was performed by incubating with MTT and monitoring the MTT formazan formed by viable cells with a microplate reader at a wavelength of 560 nm; the survival ratio was determined using the formula: (Atest−Ablank)/(Acontrol−Ablank)×100%. The cytotoxicity was determined in 96-well plates using the semiautomatic fluorescence-based Digital Imaging Microscopy System (DIMSCAN). DIMSCAN uses digital imaging microscopy to quantify viable cells, which selectively accumulate FDA (fluorescein diacetate; Alfa Aesar, Ward Hill, Mass.). DIMSCAN is capable of measuring cytotoxicity over a 4 log dynamic range by quantifying total fluorescence per well (which is proportional to the number of viable cells) after elimination of the background fluorescence by digital thresholding and eosin Y (Mallinckrodt Baker, Center Valley, Pa.) quenching. […]

On to `O=C(Nc1nc(-c2ccc(O)c(O)c2)c(-c2ccccc2)s1)c1ccc(O)c(O)c1` [COH29, N-(4-(3,4-dihydroxyphenyl)-5-phenylthiazol-2-yl)-3,4-dihydroxybenzamide], for which the AUC (usually the area under the concentration-time curve, a measure of exposure) in data set [1] is 5000 ng·h/mL. The cells survived in data set [2] (HCC1937+BRCA1 transfected with BRCA1 siRNA) was determined as 53%; in data set [2] (HCC1937+BRCA1 transfected with control siRNA), 72%.
